Results: patent publication US11484608B2, “Non-invasive assessment of hepatic mitochondrial metabolism by positional isotopomer NMR tracer analysis (PINTA)” (YALE UNIVERSITY, priority 2017, dated 2022)

Experiments:
[1] = test system: NAFLD and glucose tolerance (InsP3R-I dependent); experiment: Chronic 3.5 week glucagon infusion in high fat fed WT and InsP3R-I KO mice; format: in vivo, mouse
Description: They underwent CLAMS metabolic cage analysis to assess energetics and food and water intake during the second week of glucagon infusion. […] 48 hr later, after a 6 hr fast, they were sacrificed under isoflurane anesthesia for measurement of hepatic lipid content as described below.
(§1) In the glucose tolerance tests, rodents were injected with 1 g kg^−1 50% dextrose (rats) or 10% dextrose (mice) intraperitoneally. Blood samples were taken through the venous catheter (rats) or by tail bleeding (mice) for measurement of plasma glucose and insulin concentrations as described below (Biochemical analysis).
(§2) Plasma glucose concentrations were measured using a YSI Glucose Analyzer. […] Plasma NEFA concentrations were measured using the Wako NEFA assay, while plasma glycerol and plasma and liver amino acid concentrations were measured by GC/MS. Liver acetyl- and malonyl-CoA (standard curve R^2=0.999 and 0.999), long-chain CoA, DAG, and ceramide concentrations were measured by LC-MS/MS, hepatic glycogen content following amyloglucosidase digestion, and TAG concentrations enzymatically. cAMP concentrations were measured using the Enzo Life Sciences Direct cAMP ELISA. Protein concentrations were measured by Western blot, using antibodies from Santa Cruz (PC, PEPCK, CAMKII), Cell Signaling (ATGL, pCAMKIV, CAMKIV, pCRTC2, CRTC2, pACC, ACC, pAMPK, AMPK, pHSL, HSL, GAPDH, and β-actin), Novus Biologicals (pCAMKII), Abcam (pATGL), LSBio (pInsP3R-I), and BD Transduction Laboratories (InsP3R-II, InsP3R-III, PKCε). The antibody to pATGL was kindly provided by Dr. Hei Sook Sul, while the antibody to total InsP3R-I was custom-made using an epitope against the last 18 amino acids of InsP3R-I. Gluconeogenic gene mRNA expression was measured by qPCR^45 using primers sequences as follows: […]

[2] = test system: primary mouse hepatocytes; experiment: Oxygen consumption in isolated hepatocytes (Seahorse); format: cell-based
Description: To assess oxygen consumption, primary mouse hepatocytes were isolated as described above and plated on collagen-I coated XF24 V7 cell culture plates (1.2×10^4 cells per well) in 2 mL recovery media as previously described (Camporez, J. P. et al. Endocrinology 154, 3099-3109). Following incubation for 6 hr at 37° C. and 5% CO2, the cells were washed twice with 1 ml Low Glucose Culture Media and incubated overnight in 250 μl low glucose culture media at 37° C. and 5% CO2. The following morning, cells were washed with XF24 assay media (DMEM Base containing 1.0 mM pyruvate, 2 mM glutamine and 5.5 mM glucose, pH 7.4). 500 μL of XF24 Assay Media was added to each well and plates were equilibrated at 37° C. for 1 h. Four measurements of basal oxygen consumption rates (picomoles per minute) were recorded on a Seahorse Bioscience XF^e 24 Analyzer (Seahorse Biosciences) using an instrument protocol of 3-minute mix, 2-minute wait, and 3-minute measure. […] Ten measurements were taken following injection and the average of eight measurements were used for subsequent analyses. Oxygen consumption rates were normalized to total protein content and expressed as fold change compared to vehicle-treated cells. Experiments were repeated three times using 3-4 mice per genotype.

[3] = test system: hepatic mitochondrial oxidation, NAFLD, glucose tolerance; experiment: Chronic 10-day glucagon infusion in high fat fed rats; format: in vivo, rat
Description: During week 3 of the diet, rats underwent surgery under isoflurane anesthesia to place catheters in the jugular vein and carotid artery, and recovery was confirmed by regaining the pre-surgical body weight prior to in vivo studies. […] Rats were fasted for 8 hr prior to sacrifice with IV pentobarbital.
In the rat studies, blood was collected from the jugular venous catheter. In both species, samples were immediately centrifuged (12,000 rpm) to separate plasma from red blood cells. PINTA analysis of hepatic mitochondrial fluxes was employed in both rats and mice (see Example 1). Briefly, mice were infused with a two-hour primed (5 min, 3×)-continuous infusion of [3-^13C] lactate (40 μmol kg^−1 min^−1) and [1,2,3,4,5,6,6-^2H7] glucose (0.1 mg kg^−1 min^−1). Rats were infused with lactate at the same rate, as well as [3-^3H] glucose (0.1 mCi kg^−1 min^−1). At the conclusion of the study, animals were euthanized with IV pentobarbital.
as §1
as §2, with “Liver acetyl- and malonyl-CoA (standard curve R^2=0.999 and 0.999), long-chain CoA, DAG, and ceramide concentrations were measured by LC-MS/MS, hepatic glycogen content following amyloglucosidase digestion, and TAG concentrations enzymatically. cAMP concentrations were measured using the Enzo Life Sciences Direct cAMP ELISA.” left out

[4] = HFD rats, two hours after withdrawal of glucagon infusion
[5] = intraperitoneal glucose tolerance test, HFD rats
[6] = rat liver, chronic glucagon infusion
[7] = rats, chronic glucagon infusion

Q: Which results are given for glucagon?
A: hepatic lipid content or glucose tolerance ([1]; diet-induced obese InsP3R-I KO mice): did not manifest any alterations; body weight, food and water intake, activity and energy expenditure ([1]; diet-induced obese WT mice): unchanged; glucose tolerance ([1]; diet-induced obese WT mice): marked improvement; hepatic ceramide concentrations ([1]; diet-induced obese WT mice): without any alterations; reductions in liver triglyceride and diacylglycerol content and PKCε translocation ([1]; diet-induced obese WT mice, four-week continuous glucagon infusion): 50-80%; stimulation of mitochondrial oxidation ([2]; InsP3R-I KO hepatocytes from male mice): blunted; stimulation of mitochondrial oxidation ([2]; WT hepatocytes from male mice): ~60%; oxygen consumption ([2]; isolated WT hepatocytes, 100 nM glucagon, not InsP3R-I KO): increase; food intake, body weight, and hepatic ceramide content ([3]; HFD rats, chronic glucagon): similar; hepatic VPK flux ([3]; HFD rats, chronic glucagon): did not change; hepatic VPK flux as proportion of hepatic VPC flux ([3]; HFD rats, chronic glucagon): 15-20%; liver glycogen content ([3]; HFD rats, chronic glucagon): reductions; protein kinase C-epsilon (PKCε) translocation ([3]; HFD rats, chronic glucagon): marked reductions; reductions in hepatic triglyceride and diacylglycerol concentrations ([3]; HFD rats, chronic glucagon): 50-90%; hepatic acetyl- and malonyl-CoA content ([3]; HFD rats, glucagon withdrawn four hours before sacrifice): suppression; increase in rates of hepatic mitochondrial oxidation ([3]; HFD rats, ten days glucagon 5 ng kg^−1 min^−1): two-fold; reductions in fasting plasma glucose [3, 4]: 1.4 mM; reductions in fasting plasma insulin concentrations [3, 4]: 50%; reduction in glucose area under the curve [3, 5]: 20%; reduction in insulin area under the curve [3, 5]: 60%; Cytosolic DAG C16, C16 [3, 6]: 1.8 ± 0.2 nmol/g; Cytosolic DAG C16, C18_2 [3, 6]: 7.2 ± 1.0 nmol/g; Cytosolic DAG C16 C20_4 [3, 6]: 0.5 ± 0.1 nmol/g; Cytosolic DAG C18, C16 [3, 6]: 1.7 ± 0.1 nmol/g; Cytosolic DAG C18, C18 [3, 6]: 5.6 ± 0.6 nmol/g; Cytosolic DAG C18 C20_4 [3, 6]: 13.6 ± 1.1 nmol/g; Cytosolic DAG C18_1, C18 [3, 6]: 0.6 ± 0.1 nmol/g; Cytosolic DAG C18_1, C18_1 [3, 6]: 4.2 ± 0.5 nmol/g; Cytosolic DAG C18_1, C18_2 [3, 6]: 4.0 ± 0.5 nmol/g; Cytosolic DAG C18_1 C16 [3, 6]: 5.3 ± 0.9 nmol/g; Cytosolic DAG C18_2, C18 [3, 6]: 0.9 ± 0.1 nmol/g; Cytosolic DAG C18_2, C18_2 [3, 6]: 3.6 ± 0.6 nmol/g; Cytosolic DAG C20_4 C20_5 [3, 6]: 0.5 ± 0.1 nmol/g; Cytosolic DAG Total DAG [3, 6]: 38.3 ± 3.1 nmol/g; Membrane DAG C16, C16 [3, 6]: 10.2 ± 2.6 nmol/g; Membrane DAG C16, C18_2 [3, 6]: 97.3 ± 13.4 nmol/g; Membrane DAG C16 C20_4 [3, 6]: 4.2 ± 0.7 nmol/g; Membrane DAG C18, C16 [3, 6]: 4.9 ± 0.5 nmol/g; Membrane DAG C18, C18 [3, 6]: 6.5 ± 0.5 nmol/g; Membrane DAG C18 C20_4 [3, 6]: 21.5 ± 2.4 nmol/g; Membrane DAG C18_1, C18 [3, 6]: 3.6 ± 0.4 nmol/g; Membrane DAG C18_1, C18_1 [3, 6]: 44.1 ± 7.2 nmol/g; Membrane DAG C18_1, C18_2 [3, 6]: 58.7 ± 7.8 nmol/g; Membrane DAG C18_1 C16 [3, 6]: 50.0 ± 9.0 nmol/g; Membrane DAG C18_2, C18 [3, 6]: 7.8 ± 0.7 nmol/g; Membrane DAG C18_2, C18_2 [3, 6]: 44.0 ± 10.7 nmol/g; Membrane DAG Total DAG [3, 6]: 364.0 ± 44.7 nmol/g; Ceramide C16 [3, 7]: 40.1 ± 10.2 nmol/g; Ceramide C18 [3, 7]: 7.1 ± 1.4 nmol/g; Ceramide C20 [3, 7]: 15.9 ± 3.7 nmol/g; Ceramide C22 [3, 7]: 26.9 ± 5.2 nmol/g; Ceramide C24 [3, 7]: 52.8 ± 10.9 nmol/g; Ceramide C24:1 [3, 7]: 15.2 ± 3.9 nmol/g; Total ceramide [3, 7]: 158.0 ± 33.4 nmol/g; increases in hepatic mitochondrial fat oxidation (VFAO) ([3]; short-term continuous glucagon treatment): two-fold
